Measurements: the supplement of paper PMC12370961

Experiments:
Assay in all cases: differential drug sensitivity score (dDSS) relative to sarcoma reference cohort mean DSS (DSS units (0-100 scale difference)); higher = more selective sensitivity than reference sarcomas
Settings in all cases: exposure time: 72 h; concentration range: 10-10000 nM
[1] = test system: ES-ZH016 direct (Ewing sarcoma cells right after isolation)
Method: (§1)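 Drug response profiling of patient-derived Ewing sarcoma and CIC::DUX4 sarcoma tumoroid models (or cells tested directly after isolation from the tumor, 'direct'). The DSS is the normalised AUC (0-100); dDSS is the sample DSS minus the mean DSS of a 34-sarcoma reference cohort profiled in the same lab.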

[2] = test system: CDS-ZH003 (patient-derived CIC-DUX4 sarcoma tumoroid)
Method: as §1

[3] = test system: CDS-ZH001-2 (patient-derived CIC-DUX4 sarcoma tumoroid)
Method: as §1

[4] = test system: ES-ZH002 (patient-derived Ewing sarcoma tumoroid)
Method: as §1

[5] = test system: ES-ZH008 (patient-derived Ewing sarcoma tumoroid)
Method: as §1

[6] = test system: ES-ZH007 (patient-derived Ewing sarcoma tumoroid)
Method: as §1

[7] = test system: ES-ZH016 (patient-derived Ewing sarcoma tumoroid)
Method: as §1

[8] = test system: ES-ZH004 (patient-derived Ewing sarcoma tumoroid)
Method: as §1

[9] = test system: CDS-ZH002 (patient-derived CIC-DUX4 sarcoma tumoroid)
Method: as §1

[10] = test system: ES-ZH001 (patient-derived Ewing sarcoma tumoroid)
Method: as §1

[11] = test system: CDS-ZH002 direct (CIC-DUX4 sarcoma cells right after isolation)
Method: as §1

[12] = test system: ES-ZH009 (patient-derived Ewing sarcoma tumoroid)
Method: as §1

[13] = test system: CDS-ZH001 (patient-derived CIC-DUX4 sarcoma tumoroid)
Method: as §1

Row | Compound | differential drug sensitivity score [1] | differential drug sensitivity score [2] | differential drug sensitivity score [3] | differential drug sensitivity score [4] | differential drug sensitivity score [5] | differential drug sensitivity score [6] | differential drug sensitivity score [7] | differential drug sensitivity score [8] | differential drug sensitivity score [9] | differential drug sensitivity score [10] | differential drug sensitivity score [11] | differential drug sensitivity score [12] | differential drug sensitivity score [13]
1 | FC(F)(F)c1ccc(CNc2ccc(Cc3c[nH]c4ncc(Cl)cc34)cn2)cn1 [Pexidartinib] | 3.5 | -1.3 | 0.5 | -1.3 | -0.7 | -1.5 | 0.7 | 0 | -1.5 | -1.5 | 5.7 | -0.8 | -1.5
2 | O=c1[nH]c2ccccc2n1C1CCN(CCCC(c2ccc(F)cc2)c2ccc(F)cc2)CC1 [Pimozide] | 7.3 | 5.1 | 6.3 | -2.4 | -3.6 | -2.3 | 5.5 | -3.1 | 0.9 | -4.3 | -2.1 | 7.1 | 3.4
3 | Nc1cccc2c1C(=O)N(C1CCC(=O)NC1=O)C2=O (stereo not given) [Pomalidomide] | -1.2 | -1.3 | -1.4 | 6.4 | 3 | -1.2 | -1.4 | 0.4 | -1.4 | -1.1 | -1.4 | -1.3 | -0.6
4 | Cc1ccc(C(=O)Nc2ccc(CN3CCN(C)CC3)c(C(F)(F)F)c2)cc1C#Cc1cnc2cccnn12 [Ponatinib] | 7.8 | -0.9 | -3.9 | 10 | 3.2 | -2.6 | -3.6 | 0.5 | -3.6 | 5.6 | -3.1 | 0.2 | -6.2
5 | C[C@]12C=CC(=O)C=C1CC[C@@H]1[C@@H]2C(=O)C[C@@]2(C)[C@H]1CC[C@]2(O)C(=O)CO [Prednisone] | -0.5 | -0.5 | -0.5 | -0.5 | -0.5 | -0.5 | -0.5 | -0.5 | -0.5 | -0.5 | -0.5 | -0.5 | -0.5
6 | CC(C)(C)c1cc(NC(=O)Nc2ccc(-c3cn4c(n3)sc3cc(OCCN5CCOCC5)ccc34)cc2)no1 [Quizartinib] | 9.4 | -3.2 | 13.2 | 1.6 | 0.6 | 2.4 | -0.6 | -0.8 | -2.9 | -1.7 | 8.3 | 3.6 | -2.8
7 | Cn1c(Nc2ccc(C(F)(F)F)cc2)nc2cc(Oc3ccnc(-c4ncc(C(F)(F)F)[nH]4)c3)ccc21 [RAF-265] | 6.4 | -2.8 | 0.9 | 6.1 | 5.2 | -0.7 | 1 | -2.3 | -6.1 | 5.1 | 3 | 9.3 | -2.9
8 | O=C(NCc1cccc(O)c1)Nc1nc(-c2ccncc2)cs1 [RKI1447] | -1 | -0.9 | -1 | 6.9 | -1.2 | -1.1 | 0.4 | -0.2 | -1 | -1.2 | -1.2 | 4.8 | -0.6
9 | Cc1cnc(NC(=O)Nc2cc(Br)c(C)cc2OC[C@@H]2CNCCO2)cn1 [Rabusertib] | 5.6 | -4.9 | 7.2 | 10.7 | 12.5 | 8.8 | 8.7 | 1.2 | 1.8 | 6 | 2.4 | 6.1 | 8.8
10 | Cn1nccc1Nc1nccc(-c2ccn([C@H](CO)c3ccc(Cl)c(F)c3)c(=O)c2)n1 [Ravoxertinib] | -5 | -5 | -3.7 | -0.4 | -5 | -0.3 | -2 | -5 | -5 | -5 | -2.3 | 1.2 | -5
11 | CNC(=O)c1cc(Oc2ccc(NC(=O)Nc3ccc(Cl)c(C(F)(F)F)c3)c(F)c2)ccn1 [Regorafenib Monohydrate] | 1.8 | -3.4 | -2.3 | 13.6 | 8.9 | 0.4 | -1.1 | 5.5 | -3 | 11.6 | 1.5 | 5.8 | 1.3
12 | CNC(=O)c1cc(Oc2ccc(NC(=O)Nc3ccc(Cl)c(C(F)(F)F)c3)c(F)c2)ccn1 [Regorafenib] | -2 | 2.7 | -2 | -1.1 | -2 | -2 | -2 | 0.8 | -2 | -2 | -0.6 | -0.4 | -2
13 | C[C@H]1CNC(=O)c2cnn3ccc(nc23)N[C@H](C)c2cc(F)ccc2O1 [Repotrectinib] | 7.7 | -1.4 | 6.2 | 5 | 10.8 | -1.3 | 2.1 | 2.9 | -0.4 | 0.2 | 0.2 | 1.8 | -0.3
14 | Oc1ccc(/C=C/c2cc(O)cc(O)c2)cc1 [Resveratrol] | 4.7 | -4.6 | 0 | 16.5 | 13.8 | 0.9 | 4.4 | 10.1 | -2 | 11.6 | 0.1 | 7 | 1.4
15 | CN(C)C(=O)c1cc2cnc(Nc3ccc(N4CCNCC4)cn3)nc2n1C1CCCC1 [Ribociclib] | -3 | -0.8 | -2.1 | 8 | 3.5 | 4.1 | 0.4 | 4.2 | -2.3 | 2.6 | -2 | 1.9 | -2.1
16 | CNCc1ccc(-c2[nH]c3cc(F)cc4c3c2CCNC4=O)cc1 [Rucaparib] | 21 | -4.1 | 7.1 | 17.9 | 11.5 | 4.3 | 4.9 | 5.6 | -4 | 6.7 | -0.8 | 1.4 | -4
17 | N#CC[C@H](C1CCCC1)n1cc(-c2ncnc3[nH]ccc23)cn1 [Ruxolitinib] | 2.7 | 1.3 | -0.1 | -0.8 | -0.8 | -0.8 | 1.7 | -0.8 | -0.6 | -0.8 | -0.8 | 4.4 | 0.9
18 | CN1CCC(CNc2ccc3ncc(-c4cccc(OC(F)(F)F)c4)n3n2)CC1 [SGI1776] | -0.3 | 4.4 | 3.7 | 6.6 | 2.1 | 0.5 | 0.8 | 1.6 | 0.1 | 0.3 | -0.4 | 0.3 | 3.5
19 | CCc1c2c(nc3ccc(O)cc13)-c1cc3c(c(=O)n1C2)COC(=O)[C@]3(O)CC [SN-38] | 4.9 | -1.4 | 5.2 | 15.3 | 8.8 | 17.1 | 16.4 | 14.9 | -1 | 13.2 | -0.9 | 15.7 | 7
20 | CO[C@@H](C)Cn1c(=O)n(C)c2cnc3ccc(-c4cncc(C(C)(C)O)c4)cc3c21 [Samotolisib] | -2.7 | 0.5 | 0.9 | 12.2 | 10.9 | 2.6 | 6 | 2.3 | -8.8 | 1 | 4.5 | 7.1 | 2.3
21 | CN1CCN(CCOc2cc(OC3CCOCC3)c3c(Nc4c(Cl)ccc5c4OCO5)ncnc3c2)CC1 [Saracatinib] | 2.3 | -1.5 | 0.9 | 5.6 | 5.7 | -2.3 | -1.7 | 2.9 | -0.5 | -0.7 | 4.3 | -2.8 | 0.3
22 | O=C(/C=C\n1cnc(-c2cc(C(F)(F)F)cc(C(F)(F)F)c2)n1)NNc1cnccn1 [Selinexor] | 2.2 | -0.6 | 1.3 | 6.2 | 16.7 | 3.2 | -2.7 | 13.5 | -5.5 | -0.6 | -3.6 | -11.6 | -1.3
23 | NC(=O)C1CCCc2c1[nH]c1ccc(Cl)cc21 (stereo not given) [Selisistat] | -1.3 | -2 | -1.3 | -1 | 8.9 | -1.4 | -0.9 | -1.3 | -0.9 | -1.4 | -1.4 | -0.7 | -0.5
24 | Cn1cnc2c(F)c(Nc3ccc(Br)cc3Cl)c(C(=O)NOCCO)cc21 [Selumetinib] | -2 | 2.5 | -2 | -2 | 5.1 | -2 | -2 | -1.9 | -2 | -2 | -2 | -2 | -2
25 | CO[C@H]1C[C@@H]2CC[C@@H](C)[C@@](O)(O2)C(=O)C(=O)N2CCCC[C@H]2C(=O)O[C@H]([C@H](C)C[C@@H]2CC[C@@H](O)[C@H](OC)C2)CC(=O)[C@H](C)/C=C(\C)[C@@H](O)[C@@H](OC)C(=O)[C@H](C)C[C@H](C)/C=C/C=C/C=C/1C [Sirolimus] | -8.7 | -6.7 | -0.4 | 17.8 | 6.7 | 7.2 | -0.6 | 14.2 | -10.4 | 5.7 | -2.2 | 2.7 | -10.4
26 | Cc1c(C(=O)Nc2ccc(N3C[C@@H](C)O[C@@H](C)C3)nc2)cccc1-c1ccc(OC(F)(F)F)cc1 [Sonidegib] | -1.4 | 2.3 | -1.4 | -1.1 | -1.4 | -1.4 | -1.4 | -1.4 | -1.4 | -1.1 | -1.4 | -1.4 | -1.4
27 | CNC(=O)c1cc(Oc2ccc(NC(=O)Nc3ccc(Cl)c(C(F)(F)F)c3)cc2)ccn1 [Sorafenib] | -1.2 | -1.8 | -1 | -1.2 | -1.2 | -1.2 | -1.2 | -1.2 | -1.2 | -0.8 | -0.3 | 0.2 | -0.5
28 | C=CC(=O)N1CCN(c2nc(=O)n(-c3c(C)ccnc3C(C)C)c3nc(-c4c(O)cccc4F)c(F)cc23)[C@@H](C)C1 [Sotorasib] | 6.3 | -4.3 | 0.9 | 10.6 | 4.1 | -3.1 | 2.8 | 5.9 | -0.1 | 4.7 | 1.9 | 5.5 | 2.7
29 | C=CC(=O)Nc1cccc(Nc2nc(Nc3ccc(OCCOC)cc3)ncc2F)c1 [Spebrutinib] | 4.7 | -2.8 | -3.1 | 8.3 | 4.7 | -1.6 | -1.4 | 3.7 | -2.9 | 1.8 | -3.5 | -2 | -2.5
30 | CCN(CC)CCNC(=O)c1c(C)[nH]c(/C=C2\C(=O)Nc3ccc(F)cc32)c1C [Sunitinib] | 6.4 | -3.3 | 3.9 | 8.5 | -0.8 | 2.2 | 0.7 | 2.3 | -1.4 | 7.6 | -2 | 1.7 | 3.2
